Source: patent US8563553B2, “Compounds and compositions as protein kinase inhibitors” (Novartis AG, priority 2009, dated 2013)

What follows are compounds tested against b-Raf(V600E) (Homo sapiens (Human), UniProt P15056, V600E) (assay: Raf/Mek Amplified Luminescence Proximity Homogeneous Assay (Alpha Screen)). Conditions: b-Raf(V600E) approximately 4 pM; biotinylated Mek, kinase dead approximately 10 nM; ATP 10 μM; pre-incubation 60 minutes; reaction 3 hours at room temperature; read-out: mut-B-RAF IC50.
Sequence of b-Raf(V600E) (P15056 whole entry V600E): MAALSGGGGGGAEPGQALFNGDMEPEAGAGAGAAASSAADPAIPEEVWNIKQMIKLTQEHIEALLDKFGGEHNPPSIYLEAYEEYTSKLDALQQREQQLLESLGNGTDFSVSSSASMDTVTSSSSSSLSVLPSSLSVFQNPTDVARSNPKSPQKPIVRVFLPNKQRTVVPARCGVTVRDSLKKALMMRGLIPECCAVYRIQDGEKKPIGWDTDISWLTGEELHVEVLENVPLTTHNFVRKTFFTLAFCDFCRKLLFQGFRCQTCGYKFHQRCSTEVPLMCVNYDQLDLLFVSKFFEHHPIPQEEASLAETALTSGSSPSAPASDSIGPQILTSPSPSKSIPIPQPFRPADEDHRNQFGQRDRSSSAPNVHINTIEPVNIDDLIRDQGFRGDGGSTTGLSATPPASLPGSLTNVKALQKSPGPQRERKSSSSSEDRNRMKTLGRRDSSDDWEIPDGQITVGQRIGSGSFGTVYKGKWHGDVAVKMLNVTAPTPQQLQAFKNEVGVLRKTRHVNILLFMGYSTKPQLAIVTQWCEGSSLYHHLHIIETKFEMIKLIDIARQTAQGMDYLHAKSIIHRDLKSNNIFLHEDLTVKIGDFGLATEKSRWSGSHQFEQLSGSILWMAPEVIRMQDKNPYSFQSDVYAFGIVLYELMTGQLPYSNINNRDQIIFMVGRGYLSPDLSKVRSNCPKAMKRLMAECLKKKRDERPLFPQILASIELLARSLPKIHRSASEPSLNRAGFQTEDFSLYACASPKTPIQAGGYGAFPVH
Assay type: biochemical
Description: Raf/Mek Amplified Luminescence Proximity Homogeneous Assay
Assay buffer: 50 mM Tris, pH 7.5, 15 mM MgCl2, 0.01% Bovine Serum Albumin (BSA), 1 mM dithiothreitol (DTT) Stop buffer: 60 mM ethylenediaminetetraacetic acid (EDTA), 0.01% Tween® 20 Bead buffer: 50 mM Tris, pH 7.5, 0.01% Tween® 20 […]
biotinylated Mek, kinase dead
Alpha Screen detection kit (available from PerkinElmer™, #6760617R)
Anti phospho-MEK1/2 (available from Cell Signaling Technology, Inc. #9121) 384 well assay plates (White Greiner® plates, #781207) […]
biotinylated Mek, Kinase dead approximately 10 nM
Pre-incubation time with compounds 60 minutes at room temperature
Reaction time 1 or 3 hours at room temperature
Raf and biotinylated Mek, kinase dead, were combined at 2× final concentrations in assay buffer (50 mM Tris, pH 7.5, 15 mM MgCl2, 0.01% BSA and 1 mM DTT) and dispensed 10 μl per well in assay plates (Greiner white 384 well assay plates #781207) containing 0.5 μl of 40× of a raf kinase inhibitor test compound diluted in 100% DMSO. The plate was incubated for 60 minutes at room temperature.
The Raf kinase activity reaction was started by the addition of 10 μL per well of 2×ATP diluted in assay buffer. […] Phosphorylated product was measured using a rabbit anti-p-MEK (Cell Signaling, #9121) antibody and the Alpha Screen IgG (ProteinA) detection Kit (PerkinElmer #6760617R), by the addition of 30 μL to the well of a mixture of the antibody (1:2000 dilution) and detection beads (1:2000 dilution of both beads) in bead buffer (50 mM Tris, pH 7.5, 0.01% Tween20). The additions were carried out under dark conditions to protect the detection beads from light. A lid was placed on top of the plate and incubated for 1 hour at room temperature, then the luminescence was read on a PerkinElmer Envision instrument. The concentration of each compound for 50% inhibition (IC50) was calculated by non-linear regression using XL Fit data analysis software.

| IC50 [nM] | Compound |
| --- | --- |
| 2040 | COC(=O)N[C@@H](C)CNc1nccc(-c2[nH]c(-c3ccc(F)cc3F)nc2-c2cc(F)cc(NS(C)(=O)=O)c2Cl)n1 [Example 1BY] |
| 2 | COC(=O)N[C@@H](C)CNc1nccc(-c2[nH]c(-c3ccc(C(F)(F)F)cc3)nc2-c2cc(F)cc(NS(C)(=O)=O)c2Cl)n1 [Example 1BZ, (S)-Methyl 1-(4-(4-(2-chloro-5-fluoro-3-(methylsulfonamido)phenyl)-2-(4-(trifluoromethyl)phenyl)-1H-imidazol-5-yl)pyrimidin-2-ylamino)propan-2-ylcarbamate] |
| 0.32 | COC(=O)N[C@@H](C)CNc1nccc(-c2[nH]c(C(C)(C)C)nc2-c2cc(Cl)cc(NS(C)(=O)=O)c2)n1 [Example 1C, (S)-Methyl 1-(4-(2-tert-butyl-4-(3-chloro-5-(methylsulfonamido)phenyl)-1H-imidazol-5-yl)pyrimidin-2-ylamino)propan-2-ylcarbamate] |
| 0.1 | CCCS(=O)(=O)Nc1cc(Cl)cc(-c2nc(C(C)(C)C)[nH]c2-c2ccnc(NC[C@H](C)NC(=O)OC)n2)c1 [Example 1E, (S)-methyl 1-(4-(2-tert-butyl-4-(3-chloro-5-(propylsulfonamido)phenyl)-1H-imidazol-5-yl)pyrimidin-2-ylamino)propan-2-ylcarbamate] |
| 0.1 | COC(=O)N[C@@H](C)CNc1nccc(-c2[nH]c(C(C)(C)C)nc2-c2cc(Cl)cc(NS(=O)(=O)C3CC3)c2)n1 [Example 1F, (S)-methyl 1-(4-(2-tert-butyl-4-(3-chloro-5-(cyclopropanesulfonamido)phenyl)-1H-imidazol-5-yl)pyrimidin-2-ylamino)propan-2-ylcarbamate] |
| 0.3 | COC(=O)N[C@@H](C)CNc1nccc(-c2[nH]c(C(C)(C)C)nc2-c2cc(Cl)cc(NS(=O)(=O)CC(C)C)c2)n1 [Example 1G, (S)-methyl 1-(4-(2-tert-butyl-4-(3-chloro-5-(2-methylpropylsulfonamido)phenyl)-1H-imidazol-5-yl)pyrimidin-2-ylamino)propan-2-ylcarbamate] |
| 0.5 | CCC(C)S(=O)(=O)Nc1cc(Cl)cc(-c2nc(C(C)(C)C)[nH]c2-c2ccnc(NC[C@H](C)NC(=O)OC)n2)c1 (stereo partly drawn) [Example 1H, Methyl (2S)-1-(4-(2-tert-butyl-4-(3-chloro-5-(1-methylpropylsulfonamido)phenyl)-1H-imidazol-5-yl)pyrimidin-2-ylamino)propan-2-ylcarbamate] |
| 0.1 | CCS(=O)(=O)Nc1cc(Cl)cc(-c2nc(C(C)(C)C)[nH]c2-c2ccnc(NC[C@H](C)NC(=O)OC)n2)c1 [Example 1I, (S)-Methyl 1-(4-(2-tert-butyl-4-(3-chloro-5-(ethylsulfonamido)phenyl)-1H-imidazol-5-yl)pyrimidin-2-ylamino)propan-2-ylcarbamate] |
| 1.35 | COC(=O)N[C@@H](C)CNc1nccc(-c2[nH]c(C(C)(C)C)nc2-c2cc(Cl)cc(NS(=O)(=O)C(C)C)c2)n1 [Example 1J, (S)-Methyl 1-(4-(2-tert-butyl-4-(3-chloro-5-(1-methylethylsulfonamido)phenyl)-1H-imidazol-5-yl)pyrimidin-2-ylamino)propan-2-ylcarbamate] |
| 189 | COC(=O)N[C@@H](C)CNc1nccc(-c2[nH]c(C(C)(C)C)nc2-c2cc(NS(=O)(=O)C(C)C)c(C)c(OC)c2)n1 [Example 1K, (S)-Methyl 1-(4-(2-tert-butyl-4-(3-methoxy-4-methyl-5-(1-methylethylsulfonamido)phenyl)-1H-imidazol-5-yl)pyrimidin-2-ylamino)propan-2-ylcarbamate] |
| 157 | COC(=O)N[C@@H](C)CNc1nccc(-c2[nH]c(C(C)(C)C)nc2-c2cc(NS(=O)(=O)C3CC3)c(C)c(OC)c2)n1 [Example 1L, (S)-Methyl 1-(4-(2-tert-butyl-4-(3-(cyclopropanesulfonamido)-5-methoxy-4-methylphenyl)-1H-imidazol-5-yl)pyrimidin-2-ylamino)propan-2-ylcarbamate] |
| 0.63 | COC(=O)N[C@@H](C)CNc1nccc(-c2[nH]c(C3CC3)nc2-c2cc(Cl)cc(NS(=O)(=O)C(C)C)c2)n1 [Example 1M, (S)-Methyl 1-(4-(4-(3-chloro-5-(1-methylethylsulfonamido)phenyl)-2-cyclopropyl-1H-imidazol-5-yl)pyrimidin-2-ylamino)propan-2-ylcarbamate] |
| 204 | COC(=O)N[C@@H](C)CNc1nccc(-c2[nH]c(C(C)(C)C)nc2-c2cc(Cl)cc(NS(=O)(=O)C3CC3)c2C)n1 [Example 1N, (S)-Methyl 1-(4-(2-tert-butyl-4-(5-chloro-3-(cyclopropanesulfonamido)-2-methylphenyl)-1H-imidazol-5-yl)pyrimidin-2-ylamino)propan-2-ylcarbamate] |
| 67.2 | COC(=O)N[C@@H](C)CNc1nccc(-c2[nH]c(C(C)(C)C)nc2-c2cc(Cl)cc(NS(=O)(=O)C(C)C)c2C)n1 [Example 1O, (S)-Methyl 1-(4-(2-tert-butyl-4-(5-chloro-2-methyl-3-(1-methylethylsulfonamido)phenyl)-1H-imidazol-5-yl)pyrimidin-2-ylamino)propan-2-ylcarbamate] |
| 11.2 | COC(=O)N[C@@H](C)CNc1nccc(-c2nc(C(C)(C)C)[nH]c2-c2cc(NS(=O)(=O)C(C)C)cc(OC(F)F)c2)n1 [Example 1P, (S)-Methyl 1-(4-(2-tert-butyl-5-(3-(difluoromethoxy)-5-(1-methylethylsulfonamido)phenyl)-1H-imidazol-4-yl)pyrimidin-2-ylamino)propan-2-ylcarbamate] |
| 3.12 | COC(=O)N[C@@H](C)CNc1nccc(-c2[nH]c(C(C)(C)C)nc2-c2cc(C)cc(NS(=O)(=O)C(C)C)c2)n1 [Example 1Q, (S)-Methyl 1-(4-(2-tert-butyl-4-(3-methyl-5-(1-methylethylsulfonamido)phenyl)-1H-imidazol-5-yl)pyrimidin-2-ylamino)propan-2-ylcarbamate] |
| 34.5 | COC(=O)N[C@@H](C)CNc1nccc(-c2[nH]c(C(C)(C)C)nc2-c2cccc(NS(C)(=O)=O)c2)n1 [Example 1R, (S)-Methyl 1-(4-(2-tert-butyl-4-(3-(methylsulfonamido)phenyl)-1H-imidazol-5-yl)pyrimidin-2-ylamino)propan-2-ylcarbamate] |
| 0.48 | COC(=O)N[C@@H](C)CNc1nccc(-c2[nH]c(C3CC3)nc2-c2cc(Cl)cc(NS(C)(=O)=O)c2)n1 [Example 1S, (S)-Methyl 1-(4-(4-(3-chloro-5-(methylsulfonamido)phenyl)-2-cyclopropyl-1H-imidazol-5-yl)pyrimidin-2-ylamino)propan-2-ylcarbamate] |
| 0.47 | COC(=O)N[C@@H](C)CNc1nccc(-c2[nH]c(C3CC3)nc2-c2cccc(NS(C)(=O)=O)c2Cl)n1 [Example 1T, (S)-Methyl 1-(4-(4-(2-chloro-3-(methylsulfonamido)phenyl)-2-cyclopropyl-1H-imidazol-5-yl)pyrimidin-2-ylamino)propan-2-ylcarbamate] |
| 0.55 | COC(=O)N[C@@H](C)CNc1nccc(-c2[nH]c(C3CC3)nc2-c2cccc(NS(C)(=O)=O)c2F)n1 [Example 1U, (S)-Methyl 1-(4-(2-cyclopropyl-4-(2-fluoro-3-(methylsulfonamido)phenyl)-1H-imidazol-5-yl)pyrimidin-2-ylamino)propan-2-ylcarbamate] |
| 0.2 | COC(=O)N[C@@H](C)CNc1nccc(-c2[nH]c(C3CC3)nc2-c2cc(F)cc(NS(C)(=O)=O)c2F)n1 [Example 1V, Methyl (2S)-1-(4-(2-cyclopropyl-4-(2,5-difluoro-3-(methylsulfonamido)phenyl)-1H-imidazol-5-yl)pyrimidin-2-ylamino)propan-2-ylcarbamate] |
| 0.89 | CCCS(=O)(=O)Nc1cc(Cl)cc(-c2[nH]c(C3CC3)nc2-c2ccnc(NC[C@H](C)NC(=O)OC)n2)c1F [Example 1W, (S)-Methyl 1-(4-(5-(5-chloro-2-fluoro-3-(propylsulfonamido)phenyl)-2-cyclopropyl-1H-imidazol-4-yl)pyrimidin-2-ylamino)propan-2-ylcarbamate] |
| 0.18 | COC(=O)N[C@@H](C)CNc1nccc(-c2[nH]c(C3CC3)nc2-c2cc(Cl)cc(NS(C)(=O)=O)c2Cl)n1 [Example 1X, (S)-Methyl 1-(4-(2-cyclopropyl-4-(2,5-dichloro-3-(methylsulfonamido)phenyl)-1H-imidazol-5-yl)pyrimidin-2-ylamino)propan-2-ylcarbamate] |
| 0.24 | CCS(=O)(=O)Nc1cc(Cl)cc(-c2[nH]c(C3CC3)nc2-c2ccnc(NC[C@H](C)NC(=O)OC)n2)c1F [Example 1Z, (S)-Methyl 1-(4-(5-(5-chloro-3-(ethylsulfonamido)-2-fluorophenyl)-2-cyclopropyl-1H-imidazol-4-yl)pyrimidin-2-ylamino)propan-2-ylcarbamate] |
